For assay [1], the target named is T1, Disintegrin and metalloproteinase domain-containing protein 8 (Homo sapiens) (UniProt P78325).
T1 sequence (whole entry): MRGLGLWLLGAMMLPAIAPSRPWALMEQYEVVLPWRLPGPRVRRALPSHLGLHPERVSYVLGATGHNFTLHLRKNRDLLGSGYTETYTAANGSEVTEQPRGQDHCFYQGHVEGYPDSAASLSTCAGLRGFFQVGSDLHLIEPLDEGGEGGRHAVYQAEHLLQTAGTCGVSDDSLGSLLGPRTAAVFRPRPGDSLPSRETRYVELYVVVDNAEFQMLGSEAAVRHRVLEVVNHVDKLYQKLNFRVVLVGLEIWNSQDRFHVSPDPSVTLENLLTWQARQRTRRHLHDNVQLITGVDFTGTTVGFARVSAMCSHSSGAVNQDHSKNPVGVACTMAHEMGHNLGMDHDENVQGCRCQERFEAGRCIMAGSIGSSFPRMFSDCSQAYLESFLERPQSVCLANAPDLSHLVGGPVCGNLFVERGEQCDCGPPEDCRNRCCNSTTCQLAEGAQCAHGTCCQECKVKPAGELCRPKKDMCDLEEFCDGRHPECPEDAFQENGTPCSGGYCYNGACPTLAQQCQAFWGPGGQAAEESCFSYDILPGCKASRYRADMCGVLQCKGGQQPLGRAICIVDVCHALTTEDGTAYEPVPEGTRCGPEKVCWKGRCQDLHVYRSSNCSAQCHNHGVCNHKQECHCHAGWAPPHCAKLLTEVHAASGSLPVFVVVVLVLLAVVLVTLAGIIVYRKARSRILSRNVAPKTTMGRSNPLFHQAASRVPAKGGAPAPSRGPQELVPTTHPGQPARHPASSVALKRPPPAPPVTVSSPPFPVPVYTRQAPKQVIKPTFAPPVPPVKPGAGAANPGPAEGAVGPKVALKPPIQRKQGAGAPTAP
In words: Inhibition of ADAM8 in human MDA-MB-231 cells assessed as inhibition of Akt phosphorylation at Ser473 residue at 10 uM incubated for 48 hrs by western blot analysis. The format is cell-based.

The target in assay [2] is T1, Disintegrin and metalloproteinase domain-containing protein 8 (Homo sapiens). Briefly: Inhibition of ADAM8 in human MDA-MB-231 cells assessed as inhibition of ERK1/2 phosphorylation at Thr202/Tyr204 residues at 10 uM incubated for 48 hrs by western blot analysis. The class given is cell-based.

Activity calls are given as the source filed them. The rule behind the calls is not given here.

As to `O=C(CCCNC(=O)c1cccc(C(=O)NCCCC(=O)NCCC[C@@H](NS(=O)(=O)c2ccc(OCc3cc(Br)cc(Br)c3)cc2)C(=O)NO)c1)NCCC[C@@H](NS(=O)(=O)c1ccc(OCc2cc(Br)cc(Br)c2)cc1)C(=O)NO`, the inhibition result in assay [1] and in assay [2] was “inactive” in each case.

For `O=C(NCCC[C@@H](NS(=O)(=O)c1ccc(OCc2cc(Br)cc(Br)c2)cc1)C(=O)NO)c1cccc(C(=O)NCCC[C@@H](NS(=O)(=O)c2ccc(OCc3cc(Br)cc(Br)c3)cc2)C(=O)NO)c1`, the inhibition entry in assay [1] and in assay [2] was “inactive” throughout.

With `O=C(NCCC[C@@H](NS(=O)(=O)c1ccc(OCc2cc(Br)cc(Br)c2)cc1)C(=O)NO)NCCC[C@@H](NS(=O)(=O)c1ccc(OCc2cc(Br)cc(Br)c2)cc1)C(=O)NO`, the inhibition entry in assay [1] and in assay [2] was “inactive” in each case.

These data come from ChEMBL document CHEMBL5226358, “Discovery of Dimeric Arylsulfonamides as Potent ADAM8 Inhibitors” (ACS Med Chem Lett, 2021).
